Laboratory results as given in patent US11573231B2, “Biomarker of aging” (Max-Planck-Gesellschaft zur Forderung der Wissenschaften …, priority 2017, dated 2023).

Tested on: irg-1
Assay: Pirg-1GFP translation suppression reporter in worms
Format: in vivo, C. elegans
Conditions: 3-hour treatment, 2 mg/ml
Source text: DIC microscopy was used to perform all the nucleolar imaging. Hypodermal cells of age-matched day 1 adults were imaged using 100× magnification with Olympus IX81. Freehand tool software from Fiji was used for nucleolar area quantification. FIB-1::GFP, HLH-30::GFP and N2+Pirg-1GFP worms were imaged using Olympus IX81 and Axio Imager Z1(Zeiss).

**Q.** For C[C@@H]1C[C@@H]([C@H](O)CC2CC(=O)NC(=O)C2)C(=O)[C@@H](C)C1 [cycloheximide], which Pirg-1GFP reporter induction is on record?
**A.** induced

**Q.** And the Pirg-1GFP reporter induction (listed as Cyclohexamide)?
**A.** strongly induced
